# Experimental data: EP1347751B1, “METHODS OF TREATING BONE CANCER AND THE PAIN ASSOCIATED THEREWITH USING ENDOTHELIN ANTAGONISTS” (ABBOTT LABORATORIES, priority 2000, dated 2002)
# Key:
# [1] = tested on: prostate specific antigen (PSA); assay: Prostate Specific Antigen level assay (Chiron ACS: Centaur PSA2 sandwich immunoassay) in serum of treated subjects; format: in vivo, human; conditions: men with hormone refractory prostate cancer; oral 2.5 mg or 10 mg vs placebo; AUC, Figure 2
# Description: (§1) Studies were performed on male subjects with asymptomatic hormone refractory prostate cancer with rising PSA levels and on male subjects with symptomatic hormone refractory prostate cancer with rising PSA levels and pain. Subjects in the phase II studies had castrate levels of testosterone, either due to pharmacologic intervention, via leuprolide (Lupron®) or goserelin (Zoladex®), or via surgical castration. Subjects received ABT-627 or placebo. The following tests were conducted: • ABT-627 was formulated in 2.5 and 10 mg doses. An oral liquid formulation of ABT-627 was also prepared as follows: 1 mg/ml ABT-627, 50% glycerin, 14% alcohol, and water. Matching placebos were also provided.
# (§2) A number of recognized or putative biochemical markers of disease progression have been used to monitor treatment of individuals with prostate cancer. […]
# The effect of ABT-627 administration on prostate specific antigen (PSA) levels in human subject serum samples was determined using the procedure described in the Chiron Diagnostics ACS: Centaur PSA2 Assay. […]
# Briefly, a subject population was treated with a placebo or 2.5 mg or 10 mg of ABT-627. […] A direct relationship exists between the amount of PSA present in the patient sample and the RLU's (relative light units) detected.
# [2] = tested on: Acid Phosphatase (ACP); assay: Acid Phosphatase levels in serum of treated subjects (Sigma Diagnostics ACP Procedure No. 435); format: in vivo, human; conditions: men with hormone refractory prostate cancer, treated vs placebo, AUC, Figure 7
# Description: as §1, with “provided. […]” for “provided.”
# The effect of ABT-627 administration on Acid Phosphatase levels in human subject serum samples was determined at Quintiles Laboratories using the chemical test described in Sigma Diagnostics Acid Phosphatase (ACP) Procedure No. 435. […] The alpha-naphthol immediately reacts with fast red TR salt to produce a yellow chromophore with an absorbance maximum at 405 nm. The rate of increase in absorbance at 405 nm is directly proportional to ACP activity in the sample. ACP activity was determined in the presence and absence of L-tartrate, the difference being attributed to prostatic acid phosphatase activity. […]
# [3] = tested on: Chromagranin-A; assay: Chromagranin-A levels in serum of treated subjects (two site chemiluminescence assay, ICMA); format: in vivo, human; conditions: men with hormone refractory prostate cancer, 2.5 mg/day, AUC, Figure 8
# Description: as §1, §2
# The effect of ABT-627 adminstration on Chromagranin-A levels in human serum samples was determined by proprietary assay conducted at the Nichols Institute. […] The bound, acridinium-labeled material produces light that is detected in a luminometer after addition of triggering agents. […]
# [4] = tested on: Interleukin-6; assay: Interleukin-6 levels in serum of treated subjects (sandwich immunoassay); format: in vivo, human; conditions: men with hormone refractory prostate cancer, 2.5 mg or 10 mg vs placebo, AUC, Figure 1
# Description: as §1, §2
# The effect of ABT-627 adminstration on Interleukin-6 levels in human serum samples was determined at Quintiles Laboratories using a sandwich immunoassay. […] After incubation, the wells were washed, and the bound enzymatic activity was measured using a chromogenic substrate. […]
# [5] = Bone scan (Tc-99m phosphonate, bone scan index) in treated subjects; format: in vivo, human; conditions: men with hormone refractory prostate cancer; bone scans; 10 mg versus placebo; Figure 6
# Description: as §1
# Bone scans were performed with an NDA approved, Tc-99m phosphonate type radiopharmaceutical. This technique uses whole body format (skull to feet) so that anterior and posterior images are presented when using a 510 K-approved gamma camera. […] Each site was evaluated against a confidence score of 1 to 5, where 1 is negative, 2 is probably negative, 3 is equivocal, 4 is probably positive, and 5 is definitely positive. […] In addition, in a blinded study, a reference nuclear medicine physician interpreted the bone scans quantitatively as follows: the percent of involved bone was estimated for each individual bone, and the individual bone involvement was summed to calculate a global percent bone scan index (BSI). […]
# [6] = Visual Analog Scale (VAS) pain assessment in treated subjects; format: in vivo, human; conditions: men with symptomatic hormone refractory prostate cancer; 2.5 mg or 10 mg vs placebo; independent of the effects of morphine; AUC, Figure 3
# Description: as §1, with “provided. […]” for “provided.”
# During the course of the study, pain asessments were done daily, at bedtime, by the subject. […] The log also contained a table on which was recorded all daily pain medication consumed by the patient. […] Clinical personnel who received the logs measured the score by measuring the distance (in mm) from the "no pain" end mark to the point where the subject's line crossed the VAS line. […]
# The weekly VAS scores were calculated excluding the lowest and highest score for each week and averaging the remaining five scores. […]
# [7] = tested on: bone alkaline phosphatase (BAP); assay: Bone Alkaline Phosphatase levels in treated subjects (Alkphase-B assay); format: in vivo, human; conditions: men with hormone refractory prostate cancer; 10 mg vs placebo; AUC, Figure 5
# Description: as §1
# (§3) Markers of osteoblastic activity were assessed using urine samples. Bone markers include bone alkaline phosphatase (BAP), deoxypridinoline, and N-telopeptide of Type I collagen. Blood samples were collected prior to dosing on Day 1, Day 42, Day 84, Day 168, and every 28 days after Day 168, with a final collection on the last day of the study.
# Bone Alkaline Phosphatase levels were determined using the bone-specific Alkphase-B® assay published by Metra Biosystems (Mountain View, CA).
# [8] = tested on: carboxyterminal cross-linked telopeptide of type I collagen (ICTP); assay: Crosslinked N-telopeptide levels in treated subjects (DiaSorin ICTP radioimmunoassay); format: in vivo; conditions: men with hormone refractory prostate cancer; human serum; 10 mg vs placebo; AUC, Figure 4
# Description: as §1, §3
# Cross-linked N-telopeptide levels were determined using the DiaSorin (Stillwater, MN) assay for the quantitative determination of carboxyterminal cross-linked telopeptide of type I collagen (ICTP) in human serum by equilibrium radioimmunoassay (RIA). […] The bound tracer in the pellet was counted with a gamma counter. […]
structure (smiles),measurement,setting,value
CCCCN(CCCC)C(=O)CN1C[C@H](c2ccc3c(c2)OCO3)[C@@H](C(=O)O)[C@@H]1c1ccc(OC)cc1 [ABT-627],rate of increase of PSA in the serum samples,[1],decreases
same,average change from baseline for acid phosphatase,[2],decreased
same,rate of increase for acid phosphatase,[2],decreased
same,average change from baseline for Chromagranin-A,[3],higher
same,average change in baseline for Interleukin-6,[4],lower
same,proportion of total skeketal involvement,[5],decrease in the proportion of total skeketal involvement
same,VAS scores (pain),[6],decrease in pain
same,BAP levels,[7],decreased
same,Crosslinked N-telopeptide levels,[8],decreased
